Measured values as given in ChEMBL document CHEMBL1201862, “PubChem BioAssay data set” (2004).
Activity calls are given as the source filed them.

Key:
[1] = Luminescence-based cell-based high throughput dose response assay to identify activators of the DAF-12 from the parasite S. stercoralis (ssDAF-12).; format: functional
[2] = biological target: T1, Oxysterols receptor LXR-beta (Homo sapiens, UniProt P55055); assay: LXR agonists, Gal4 luciferase reporter, dose response, counter-screen for ssDAF-12 agonist project, cell-based, luminescence, HEK293, S. stercoralis campaign (AID 720737); format: functional; settings: read-out: IC50 (the source's name)
T1 sequence (P55055 whole entry): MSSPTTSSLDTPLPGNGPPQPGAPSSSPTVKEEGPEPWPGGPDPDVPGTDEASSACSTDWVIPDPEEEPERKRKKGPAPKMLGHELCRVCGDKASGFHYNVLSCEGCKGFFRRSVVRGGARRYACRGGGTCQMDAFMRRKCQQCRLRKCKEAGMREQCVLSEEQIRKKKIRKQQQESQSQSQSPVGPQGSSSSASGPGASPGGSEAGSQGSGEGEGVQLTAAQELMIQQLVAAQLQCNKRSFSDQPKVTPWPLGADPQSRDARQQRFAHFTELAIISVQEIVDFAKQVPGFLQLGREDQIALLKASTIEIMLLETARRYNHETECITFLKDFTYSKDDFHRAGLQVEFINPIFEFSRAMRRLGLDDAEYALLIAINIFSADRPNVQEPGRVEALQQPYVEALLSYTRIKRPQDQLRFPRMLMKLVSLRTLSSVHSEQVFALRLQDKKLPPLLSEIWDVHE

[3] = biological target: T2, Bcl-2-related protein A1 (Mus musculus, UniProt Q07440); assay: small-molecule antagonists of Bfl-1/BH3 interaction – biochemical, TR-FRET, mouse Bfl-1, confirmation (AID 621);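 note: TR-FRET binding of GST-Bfl-1 to FITC-labelled Bid peptide via terbium antibody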
T2 sequence (Q07440 whole entry): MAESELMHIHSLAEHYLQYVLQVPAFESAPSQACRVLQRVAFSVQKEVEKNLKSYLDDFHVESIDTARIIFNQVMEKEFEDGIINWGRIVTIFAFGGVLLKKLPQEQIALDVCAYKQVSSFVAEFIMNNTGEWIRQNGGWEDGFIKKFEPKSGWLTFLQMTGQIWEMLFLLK

[4] = biological target: T2, Bcl-2-related protein A1; assay: Bfl-1 binding inhibitors, SAR follow-up, biochemical, fluorescence polarization (AID 1070)
[5] = biological target: Cytochrome P450 2C19 (Homo sapiens, UniProt P33261); assay: Cytochrome panel assay with activity outcomes. Panel member name: p450-cyp2c19 Compounds with AC50 equal or less than 10 uM are considered active; format: functional; settings: read-out: AC50
[6] = biological target: T3, Caspase-6 (Homo sapiens, UniProt P55212); assay: inhibition of CASP6 peptide cleavage – biochemical, VEID-R110 fluorescence, cherry-pick, dose response (AID 720632)
T3 sequence (P55212 whole entry): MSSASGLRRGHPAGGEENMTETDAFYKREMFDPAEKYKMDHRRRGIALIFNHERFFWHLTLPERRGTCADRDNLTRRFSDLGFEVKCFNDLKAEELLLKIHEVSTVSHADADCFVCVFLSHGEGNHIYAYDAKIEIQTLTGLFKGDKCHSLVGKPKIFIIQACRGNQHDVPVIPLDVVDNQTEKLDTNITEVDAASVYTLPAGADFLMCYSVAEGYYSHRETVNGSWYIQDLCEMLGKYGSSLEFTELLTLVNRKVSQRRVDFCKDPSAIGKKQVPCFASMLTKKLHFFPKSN

[7] = biological target: T4, Histone-lysine N-methyltransferase NSD2 (Homo sapiens, UniProt O96028); format: biochemical
T4 sequence (O96028 whole entry): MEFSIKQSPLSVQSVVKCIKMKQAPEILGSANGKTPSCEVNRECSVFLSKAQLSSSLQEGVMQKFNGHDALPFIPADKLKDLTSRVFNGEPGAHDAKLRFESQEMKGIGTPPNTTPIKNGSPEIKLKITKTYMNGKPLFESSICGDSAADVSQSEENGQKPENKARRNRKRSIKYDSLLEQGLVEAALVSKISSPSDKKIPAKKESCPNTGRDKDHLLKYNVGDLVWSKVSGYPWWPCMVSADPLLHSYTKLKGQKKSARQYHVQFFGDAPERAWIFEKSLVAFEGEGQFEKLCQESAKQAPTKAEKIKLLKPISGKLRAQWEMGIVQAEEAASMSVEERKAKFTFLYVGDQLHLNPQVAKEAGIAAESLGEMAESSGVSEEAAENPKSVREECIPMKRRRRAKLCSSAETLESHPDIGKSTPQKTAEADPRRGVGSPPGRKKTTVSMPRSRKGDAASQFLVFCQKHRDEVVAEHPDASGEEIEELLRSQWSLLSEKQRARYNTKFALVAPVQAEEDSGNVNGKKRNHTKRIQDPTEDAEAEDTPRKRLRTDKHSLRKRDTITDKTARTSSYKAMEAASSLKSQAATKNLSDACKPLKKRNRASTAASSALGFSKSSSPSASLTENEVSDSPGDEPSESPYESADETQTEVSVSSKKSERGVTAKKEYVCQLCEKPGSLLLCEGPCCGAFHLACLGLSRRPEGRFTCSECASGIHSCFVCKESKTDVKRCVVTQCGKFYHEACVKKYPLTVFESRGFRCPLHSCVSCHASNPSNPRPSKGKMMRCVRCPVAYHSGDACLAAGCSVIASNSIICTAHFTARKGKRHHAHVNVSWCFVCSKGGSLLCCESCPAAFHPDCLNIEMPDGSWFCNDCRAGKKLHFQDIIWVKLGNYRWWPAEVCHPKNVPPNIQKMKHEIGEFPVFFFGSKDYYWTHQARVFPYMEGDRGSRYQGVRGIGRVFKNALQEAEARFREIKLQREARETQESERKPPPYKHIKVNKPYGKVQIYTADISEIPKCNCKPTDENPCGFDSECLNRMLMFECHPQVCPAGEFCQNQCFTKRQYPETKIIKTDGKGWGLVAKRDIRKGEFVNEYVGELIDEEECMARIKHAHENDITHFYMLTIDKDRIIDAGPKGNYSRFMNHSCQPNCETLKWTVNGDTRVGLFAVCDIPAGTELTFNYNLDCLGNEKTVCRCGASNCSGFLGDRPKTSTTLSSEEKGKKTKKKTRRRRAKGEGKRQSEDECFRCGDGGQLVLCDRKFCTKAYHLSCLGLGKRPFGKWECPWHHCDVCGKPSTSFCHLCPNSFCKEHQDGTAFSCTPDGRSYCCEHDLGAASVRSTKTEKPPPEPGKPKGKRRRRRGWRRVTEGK

[8] = biological target: Cytochrome P450 2C9 (Homo sapiens, UniProt P11712)
[9] = system: INS1; assay: INS-1E survival protection against cytokine death – cell-based, luminescence, retest, dose response (AID 449756); format: functional; settings: Rattus norvegicus;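 note: cell death triggered by IL-1 beta plus TNF-alpha plus IFN-gamma mixture; protective hits raise ATP signal compared with cytokine alone wells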
[10] = biological target: T5, Galanin receptor type 3 (Homo sapiens, UniProt O60755); assay: Fluorescence-based cell-based primary high throughput dose response assay to identify antagonists of the Galanin Receptor 3 (GalR3).; format: functional
T5 sequence (O60755 whole entry): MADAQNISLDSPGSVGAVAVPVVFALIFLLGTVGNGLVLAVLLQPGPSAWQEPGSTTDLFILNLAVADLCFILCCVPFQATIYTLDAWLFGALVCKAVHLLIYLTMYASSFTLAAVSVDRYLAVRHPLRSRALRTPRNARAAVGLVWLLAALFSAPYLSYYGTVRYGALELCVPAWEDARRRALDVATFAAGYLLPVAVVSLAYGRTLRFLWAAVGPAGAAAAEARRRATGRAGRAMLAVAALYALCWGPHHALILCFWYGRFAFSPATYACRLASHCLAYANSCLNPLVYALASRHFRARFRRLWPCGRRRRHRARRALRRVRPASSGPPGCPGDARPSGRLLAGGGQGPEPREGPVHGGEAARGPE

[11] = cells; format: functional, cell-based; settings: HEK-CNG
[12] = biological target: T6, COUP transcription factor 2 (Homo sapiens, UniProt P24468); assay: Luminescence-based cell-based high throughput dose response assay to identify inhibitors of COUP-TFII (NR2F2).; format: functional;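 note: HEK293 cells transiently cotransfected with COUP-TFII expression vector and reporter; luciferase reporter luminescence driven by COUP-TFII from the pX2-168 reporter plasmid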
T6 sequence (P24468 whole entry): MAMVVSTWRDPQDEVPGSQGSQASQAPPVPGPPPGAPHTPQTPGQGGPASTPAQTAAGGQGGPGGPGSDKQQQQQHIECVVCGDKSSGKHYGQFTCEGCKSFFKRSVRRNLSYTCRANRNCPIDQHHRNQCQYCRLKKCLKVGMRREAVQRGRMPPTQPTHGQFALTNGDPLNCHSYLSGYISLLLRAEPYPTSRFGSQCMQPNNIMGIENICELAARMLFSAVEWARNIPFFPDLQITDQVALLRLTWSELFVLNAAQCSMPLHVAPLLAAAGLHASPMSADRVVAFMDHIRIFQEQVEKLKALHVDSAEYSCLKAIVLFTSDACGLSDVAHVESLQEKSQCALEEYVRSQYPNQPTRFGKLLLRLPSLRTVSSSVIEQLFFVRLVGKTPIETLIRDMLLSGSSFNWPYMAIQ

[13] = biological target: Peroxisome proliferator-activated receptor gamma/Nuclear receptor corepressor 2 (Homo sapiens, UniProt P37231+Q9Y618); assay: Counterscreen for NR2E3 inverse agonists: TR-FRET-based biochemical high throughput dose response assay to identify inverse agonists of the interaction between peroxisome proliferator-activated receptor gamma (PPARg) and nuclear receptor co-repressor 2 (NCOR2).; format: functional
[14] = biological target: Photoreceptor-specific nuclear receptor (Homo sapiens, UniProt Q9Y5X4); assay: ligands suppressing NR2E3 nuclear receptor activity – biochemical, TR-FRET, dose response (AID 463256); format: functional
[15] = reduction of Shn3 3'UTR-driven luciferase in osteoblasts – cell-based, Clone20 osteoblasts, firefly luciferase, cherry-picked, dose response (AID 624132); format: functional;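 note: firefly luciferase luminescence from reporter carrying the Shn3 3'UTR in osteoblasts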
[16] = loss of viability in HepG2 cells – cell-based, CellTiter-Glo, cherry-picked, cytotoxicity control for Shn3 inhibitor project, dose response (AID 624134); format: functional
[17] = non-specific 3'UTR reporter inhibition in Clone20-Shn3RL – cell-based, Renilla luciferase, cherry-picked, counter-screen for Shn3 inhibitor project, dose response (AID 624133); format: functional
[18] = biological target: Paired box protein Pax-8 (Homo sapiens, UniProt Q06710); assay: PAX8 transcriptional activity inhibition in RMG-I – RMG-I cells, luciferase, cherry-pick, dose response (AID 687027); format: functional, cell-based;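 note: luciferase reporter driven by Pax8 target thyroperoxidase promoter measured by SteadyGlo luminescence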
[19] = IGROV1 cell killing – plate reader, dry powder samples, PAX8 inhibitor project, dose response (AID 743043); format: functional, cell-based; settings: IGROV-1
[20] = P. falciparum Dd2 growth inhibitors, dose response, SYBR Green, cherry-picked samples (AID 1159567); format: functional, cell-based
[21] = toxicity to human hepatoma HepG2 cells – cell-based, cherry-picked samples, cytotoxicity control, dose response (AID 1159577); format: functional
[22] = inhibitors of non-replicating M. tuberculosis, dose response, luciferase, dry powder (AID 651619); format: functional; settings: Mycobacterium tuberculosis
[23] = inhibitors of non-replicating M. tuberculosis, dose response, luciferase, dry powder (AID 651620); format: functional; settings: Mycobacterium tuberculosis
[24] = growth inhibition of replicating M. tuberculosis, dose response, counter-screen, dry powder, IC90 (AID 651617); format: functional; settings: Mycobacterium tuberculosis
[25] = growth inhibition of yeast DHODH-expressing 3D7 parasites – SYBR Green, dry powder samples, dose response (AID 1159570); format: functional, cell-based;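 note: parasite growth measured after 72 hours of compound exposure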
[26] = Dd2 malaria parasite growth inhibition potency – SYBR Green, dry powder samples, dose response (AID 1159566); format: functional, cell-based;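 note: potency for growth inhibition with lower SYBR green DNA signal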
[27] = growth inhibition of PfATP4-mutant resistant parasites – NITD609-resistant line, SYBR Green, dry powder, dose response (AID 1159571); format: functional, cell-based;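 note: parasites synchronized at ring stage by sorbitol before testing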

Chain of Cytochrome P450 2C9 (P11712 whole entry): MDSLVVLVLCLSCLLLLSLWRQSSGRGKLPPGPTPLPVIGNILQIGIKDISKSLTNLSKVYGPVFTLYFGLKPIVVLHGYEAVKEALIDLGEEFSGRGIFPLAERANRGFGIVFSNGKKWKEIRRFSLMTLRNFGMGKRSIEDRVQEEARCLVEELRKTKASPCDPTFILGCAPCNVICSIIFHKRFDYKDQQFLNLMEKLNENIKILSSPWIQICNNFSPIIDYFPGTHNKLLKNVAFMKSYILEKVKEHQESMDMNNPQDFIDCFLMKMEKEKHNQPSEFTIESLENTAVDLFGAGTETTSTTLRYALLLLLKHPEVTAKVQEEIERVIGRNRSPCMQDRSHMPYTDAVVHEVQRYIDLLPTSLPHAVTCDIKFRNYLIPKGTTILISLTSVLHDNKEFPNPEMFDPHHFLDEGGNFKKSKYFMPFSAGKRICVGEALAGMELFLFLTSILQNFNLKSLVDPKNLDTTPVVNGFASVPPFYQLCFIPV
Chain of Paired box protein Pax-8 (Q06710 whole entry): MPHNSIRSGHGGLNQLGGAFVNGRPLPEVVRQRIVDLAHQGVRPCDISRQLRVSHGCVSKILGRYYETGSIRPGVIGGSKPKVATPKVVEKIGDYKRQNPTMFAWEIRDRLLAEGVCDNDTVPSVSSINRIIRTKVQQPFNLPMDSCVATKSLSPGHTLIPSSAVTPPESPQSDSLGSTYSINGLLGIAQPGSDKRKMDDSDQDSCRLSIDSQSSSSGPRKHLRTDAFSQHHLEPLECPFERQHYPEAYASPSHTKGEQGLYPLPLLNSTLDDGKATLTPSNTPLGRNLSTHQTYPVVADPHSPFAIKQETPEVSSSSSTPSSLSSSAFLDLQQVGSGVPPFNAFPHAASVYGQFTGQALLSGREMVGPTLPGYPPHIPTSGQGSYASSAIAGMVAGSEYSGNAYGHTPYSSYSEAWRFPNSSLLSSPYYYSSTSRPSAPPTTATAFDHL
Chain of Photoreceptor-specific nuclear receptor (Q9Y5X4 whole entry): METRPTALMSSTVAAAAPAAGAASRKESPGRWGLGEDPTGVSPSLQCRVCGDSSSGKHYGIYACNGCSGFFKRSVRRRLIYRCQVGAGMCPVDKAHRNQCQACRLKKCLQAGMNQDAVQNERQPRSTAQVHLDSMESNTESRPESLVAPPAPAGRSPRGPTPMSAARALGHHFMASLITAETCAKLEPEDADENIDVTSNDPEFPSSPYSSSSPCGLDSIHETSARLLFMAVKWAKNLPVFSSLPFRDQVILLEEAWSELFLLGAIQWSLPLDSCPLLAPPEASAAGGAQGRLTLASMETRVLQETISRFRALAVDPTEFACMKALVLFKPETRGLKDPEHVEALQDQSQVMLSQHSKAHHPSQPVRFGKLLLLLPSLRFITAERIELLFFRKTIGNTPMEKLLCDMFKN
Chain of Peroxisome proliferator-activated receptor gamma/Nuclear receptor corepressor 2 (P37231 whole entry): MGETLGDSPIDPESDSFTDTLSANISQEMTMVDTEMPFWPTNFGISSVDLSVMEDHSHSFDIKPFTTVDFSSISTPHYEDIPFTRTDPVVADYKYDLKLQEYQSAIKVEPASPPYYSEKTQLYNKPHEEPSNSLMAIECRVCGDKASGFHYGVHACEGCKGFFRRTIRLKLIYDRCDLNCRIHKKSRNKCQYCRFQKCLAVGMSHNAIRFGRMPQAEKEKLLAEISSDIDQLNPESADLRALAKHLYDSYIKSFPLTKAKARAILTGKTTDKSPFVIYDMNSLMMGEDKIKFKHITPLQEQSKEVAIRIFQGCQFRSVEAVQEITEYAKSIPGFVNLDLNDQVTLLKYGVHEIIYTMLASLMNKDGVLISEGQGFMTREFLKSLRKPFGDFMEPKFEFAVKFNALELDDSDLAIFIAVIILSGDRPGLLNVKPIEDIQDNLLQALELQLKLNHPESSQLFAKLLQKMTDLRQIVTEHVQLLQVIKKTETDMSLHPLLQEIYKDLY
Chain of Peroxisome proliferator-activated receptor gamma/Nuclear receptor corepressor 2 (Q9Y618 whole entry): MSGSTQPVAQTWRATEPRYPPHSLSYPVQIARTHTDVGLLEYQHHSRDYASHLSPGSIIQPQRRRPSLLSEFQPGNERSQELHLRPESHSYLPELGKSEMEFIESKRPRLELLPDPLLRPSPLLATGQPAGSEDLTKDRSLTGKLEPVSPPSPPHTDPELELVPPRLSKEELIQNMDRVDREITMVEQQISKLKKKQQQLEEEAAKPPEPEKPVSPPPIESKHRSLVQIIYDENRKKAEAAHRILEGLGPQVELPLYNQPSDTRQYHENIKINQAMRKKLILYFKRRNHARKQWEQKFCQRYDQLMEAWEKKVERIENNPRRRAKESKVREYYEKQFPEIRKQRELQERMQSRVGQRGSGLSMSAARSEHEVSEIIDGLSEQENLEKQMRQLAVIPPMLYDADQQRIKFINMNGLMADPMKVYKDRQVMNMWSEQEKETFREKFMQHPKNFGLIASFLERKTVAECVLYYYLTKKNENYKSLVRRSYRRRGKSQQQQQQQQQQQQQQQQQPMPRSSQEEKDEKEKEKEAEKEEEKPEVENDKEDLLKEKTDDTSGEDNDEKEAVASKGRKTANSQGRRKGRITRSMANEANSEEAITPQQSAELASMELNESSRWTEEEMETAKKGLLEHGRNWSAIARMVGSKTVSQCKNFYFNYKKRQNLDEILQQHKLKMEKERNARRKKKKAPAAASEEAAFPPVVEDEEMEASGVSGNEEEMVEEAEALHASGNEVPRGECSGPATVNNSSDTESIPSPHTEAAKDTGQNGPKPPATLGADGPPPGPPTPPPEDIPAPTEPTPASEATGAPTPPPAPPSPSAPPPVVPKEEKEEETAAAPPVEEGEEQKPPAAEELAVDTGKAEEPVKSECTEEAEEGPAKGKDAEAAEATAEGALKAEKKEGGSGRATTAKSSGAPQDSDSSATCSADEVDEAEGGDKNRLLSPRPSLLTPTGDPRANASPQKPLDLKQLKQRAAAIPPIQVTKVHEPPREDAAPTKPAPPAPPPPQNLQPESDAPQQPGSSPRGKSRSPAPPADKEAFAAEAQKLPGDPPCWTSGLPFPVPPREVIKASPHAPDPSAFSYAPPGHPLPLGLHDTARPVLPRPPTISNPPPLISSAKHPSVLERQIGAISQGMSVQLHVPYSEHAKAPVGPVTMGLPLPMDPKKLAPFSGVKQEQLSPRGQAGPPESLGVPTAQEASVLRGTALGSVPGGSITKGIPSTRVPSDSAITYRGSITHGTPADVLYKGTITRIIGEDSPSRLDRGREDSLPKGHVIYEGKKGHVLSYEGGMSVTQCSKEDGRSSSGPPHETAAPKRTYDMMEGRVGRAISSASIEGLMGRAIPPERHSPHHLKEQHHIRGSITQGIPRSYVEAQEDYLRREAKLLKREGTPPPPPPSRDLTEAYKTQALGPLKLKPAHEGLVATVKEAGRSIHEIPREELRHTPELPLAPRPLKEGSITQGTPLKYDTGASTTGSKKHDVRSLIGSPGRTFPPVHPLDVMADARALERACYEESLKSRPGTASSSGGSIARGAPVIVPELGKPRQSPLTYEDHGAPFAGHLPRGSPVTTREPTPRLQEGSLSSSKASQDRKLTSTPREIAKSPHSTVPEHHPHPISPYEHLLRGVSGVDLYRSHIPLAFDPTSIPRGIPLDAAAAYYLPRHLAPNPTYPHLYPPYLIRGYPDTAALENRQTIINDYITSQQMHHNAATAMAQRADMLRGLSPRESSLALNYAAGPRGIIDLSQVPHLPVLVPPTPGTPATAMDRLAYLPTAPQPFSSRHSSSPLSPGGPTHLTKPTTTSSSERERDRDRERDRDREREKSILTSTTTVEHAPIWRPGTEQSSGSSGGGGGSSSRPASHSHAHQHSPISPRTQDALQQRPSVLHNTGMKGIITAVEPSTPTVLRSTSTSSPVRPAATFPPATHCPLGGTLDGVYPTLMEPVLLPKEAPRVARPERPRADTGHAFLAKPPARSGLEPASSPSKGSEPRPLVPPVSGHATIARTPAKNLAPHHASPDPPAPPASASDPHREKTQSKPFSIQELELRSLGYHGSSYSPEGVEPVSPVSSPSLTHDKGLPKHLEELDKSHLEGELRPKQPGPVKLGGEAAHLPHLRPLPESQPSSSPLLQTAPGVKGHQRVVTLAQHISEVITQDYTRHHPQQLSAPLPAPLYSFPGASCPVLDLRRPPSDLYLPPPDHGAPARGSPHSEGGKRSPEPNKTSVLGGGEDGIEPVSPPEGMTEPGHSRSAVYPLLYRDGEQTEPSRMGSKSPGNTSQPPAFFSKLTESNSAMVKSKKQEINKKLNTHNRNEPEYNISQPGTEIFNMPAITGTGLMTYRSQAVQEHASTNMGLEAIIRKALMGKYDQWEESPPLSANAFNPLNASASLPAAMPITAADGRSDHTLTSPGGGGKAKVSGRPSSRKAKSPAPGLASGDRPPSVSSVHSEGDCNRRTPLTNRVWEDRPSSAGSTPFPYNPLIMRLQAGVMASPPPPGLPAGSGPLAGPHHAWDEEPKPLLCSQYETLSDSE
Chain of Cytochrome P450 2C19 (P33261 whole entry): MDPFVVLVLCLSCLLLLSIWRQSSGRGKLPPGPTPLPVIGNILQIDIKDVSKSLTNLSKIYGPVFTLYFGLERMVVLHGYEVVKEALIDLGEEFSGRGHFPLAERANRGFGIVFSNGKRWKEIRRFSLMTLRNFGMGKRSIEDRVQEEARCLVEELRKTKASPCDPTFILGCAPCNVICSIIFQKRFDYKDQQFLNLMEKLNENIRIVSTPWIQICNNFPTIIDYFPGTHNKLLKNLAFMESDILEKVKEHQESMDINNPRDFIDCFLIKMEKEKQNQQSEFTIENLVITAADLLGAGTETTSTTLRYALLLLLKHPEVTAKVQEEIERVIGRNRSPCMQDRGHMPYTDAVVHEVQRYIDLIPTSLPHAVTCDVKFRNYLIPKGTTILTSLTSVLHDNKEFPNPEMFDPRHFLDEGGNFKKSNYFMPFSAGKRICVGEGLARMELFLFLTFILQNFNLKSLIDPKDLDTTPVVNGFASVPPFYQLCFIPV

With `Fc1ccc(-c2cnn3c(-c4cccs4)ccnc23)cc1` the IC50 [1] was > 67.5 µM (inactive) and the EC50 [2] was > 67.5 µM (inactive).
For `COc1ccc2nc(O)c(-c3nnn(-c4ccc(Cl)nc4)n3)cc2c1`, the IC50 [3] was > 100 µM (not active) and the IC50 [4] was > 100 µM (not active).
With `Nc1cc(S(=O)(=O)O)cc2ccc(S(=O)(=O)O)cc12` the AC50 [5] was 7.94 µM (inconclusive), the AC50 [6] was 45.1 µM (active) and the AC50 [7] was > 20 µM (inactive). The AC50 [8] was 7.94 µM (inconclusive).
In the case of `Cc1ccc(-n2nnc(-c3cccnc3)n2)cc1`, the IC50 [3] is reported as > 100 µM (not active) and the IC50 [4] is reported as > 100 µM (not active).
In the case of `O=C(O)c1ccccc1SCC(=O)N1CCc2ccccc21`, the IC50 [1] is reported as > 67.5 µM (inactive) and the EC50 [2] is reported as > 67.5 µM (inactive).
In the case of `COC(=O)C1CCCCN1C(=O)c1cc(COc2cccc3cnccc23)on1` (centres undefined), the AC50 [9] is reported as 3.68 µM (active), the IC50 [10] is reported as 1.48 µM (active) and the EC50 [11] is reported as > 29.9 µM (inactive). The IC50 [12] was 7.34 µM (active).
In the case of `O=C(CSc1nnc(-c2cccs2)n1-c1ccccc1)Nc1ccccc1`, the IC50 [13] is reported as 11.8 µM (not active) and the IC50 [14] is reported as 5.52 µM (active).
With `Fc1ccc(-n2nnc(-c3cc4ccccc4nc3Cl)n2)cc1` the IC50 [3] was > 100 µM (not active) and the IC50 [4] was > 100 µM (not active).
In the case of `COc1cc2c(cc1OC)C1C(=O)c3ccc4c(c3OC1CO2)CC(C(C)C)O4` (centres undefined), the AC50 [15] is reported as < 0.26 µM (active), the AC50 [16] is reported as 0.614 µM (active) and the AC50 [17] is reported as 5.08 µM (active). For the same molecule, the IC50 [10] was 0.0386 µM (active), the EC50 [11] was > 29.9 µM (inactive) and the IC50 [12] was 0.519 µM (active).
With `C[C@H](CO)N1C[C@H](C)[C@@H](CN(C)Cc2ccc(Cl)c(Cl)c2)Oc2ccc(NC(=O)Nc3ccc(C(F)(F)F)cc3)cc2CC1=O` the AC50 [18] was 6.35 µM (active), the AC50 [19] was 54.3 µM (active) and the AC50 [20] was 2.62 µM (active). The AC50 [21] was 11.8 µM (active).
For `Fc1ccc(CSc2nnc(-c3ccccc3)o2)cc1`, the IC90 [22] was 4 µM (active), the IC90 [23] was 4 µM (active) and the IC90 [24] was 250 µM (active).
In the case of `C/C=C/c1ccc2c(c1)[C@H]1[C@H](CCN1C(=O)c1ccc(F)cc1)[C@H](CO)N2`, the AC50 [25] is reported as 1.96 µM (active), the AC50 [20] is reported as 2.79 µM (active) and the AC50 [26] is reported as 2.01 µM (active). The AC50 [27] was 2 µM (active).
For `CCN(C[C@@H]1N[C@@H](CO)[C@H]1c1ccc(-c2ccc(F)cc2)cc1)C(=O)CN(C)C`, the AC50 [20] was 2.05 µM (active) and the AC50 [21] was 8.36 µM (active).
